Measurements taken from patent publication US20240083857A1, “2-Methyl-Quinazolines” (Bayer Pharma Aktiengesellschaft, priority 2017, published 2024).

Columns and labels:
[1] = target: human SOS1 (nucleotide exchange of K-Ras^G12C) (Homo sapiens, UniProt Q07889); assay: Biochemical assay 2: K-Ras^G12C activation assay by hSOS1 at high GTP concentration (HTRF); details: high GTP; read-out: Assay 2 (KRAS-Activation by SOS high GTP) activity expressed as IC50
[2] = target: K-Ras^G12C : hSOS1 interaction (Homo sapiens, UniProt Q07889); assay: Biochemical assay 1: K-Ras^G12C interaction assay with hSOS1 (HTRF); format: binding; details: read-out: Assay 1 (KRAS-SOS Interaction) activity expressed as IC50

COc1cc2nc(C)nc(NC(C)c3ccc(-c4ccccc4CN4CC(F)(F)C4)s3)c2cc1OC (centres unmarked) [Example 320, N-[1-(5-{2-[(3,3-difluoroazetidin-1-yl)methyl]phenyl}thiophen-2-yl)ethyl]-6,7-dimethoxy-2-methylquinazolin-4-amine]
IC50 [1]: 1300 nM | IC50 [2]: 2260 nM

COc1cc2nc(C)nc(NC(C)c3ccc(-c4ccccc4CN(C)CC(F)(F)F)s3)c2cc1OC (centres unmarked) [Example 321, 6,7-di methoxy-2-methyl-N-{1-[5-(2-{[methyl(2,2,2-trifluoroethyl)amino]methyl}phenyl)thiophen-2-yl]ethyl}quinazolin-4-amine]
IC50 [1]: 6240 nM | IC50 [2]: 14800 nM

COc1cc2nc(C)nc(NC(C)c3ccc(-c4ccccc4CN4CC(F)C4)s3)c2cc1OC (centres unmarked) [Example 322, N-[1-(5-{2-[(3-fluoroazetidin-1-yl)methyl]phenyl}thiophen-2-yl)ethyl]-6,7-dimethoxy-2-methylquinazolin-4-amine]
IC50 [1]: 247 nM | IC50 [2]: 408 nM

COc1cc2nc(C)nc(NC(C)c3ccc(-c4ccc(Cl)cc4CN(C)C)s3)c2cc1OC (centres unmarked) [Example 323, N-[1-(5-{4-chloro-2-[(dimethylamino)methyl]phenyl}thiophen-2-yl)ethyl]-6,7-dimethoxy-2-methylquinazolin-4-amine]
IC50 [1]: 72.9 nM | IC50 [2]: 39.5 nM

COc1cc2nc(C)nc(NC(C)c3ccc(-c4ccccc4C(C)=O)s3)c2cc1OC (centres unmarked) [Example 324, 1-[2-(5-{1-[(6,7-dimethoxy-2-methylquinazolin-4-yl)amino]ethyl}thiophen-2-yl)phenyl]ethanone]
IC50 [1]: 3380 nM | IC50 [2]: 1290 nM

COc1cc2nc(C)nc(NC(C)c3ccc(-c4ccccc4OCCN4CCCC4)s3)c2cc1OC (centres unmarked) [Example 325, 6,7-di methoxy-2-methyl-N-[1-(5-{2-[2-(pyrrolidin-1-yl)ethoxy]phenyl}thiophen-2-yl)ethyl]quinazolin-4-amine]
IC50 [1]: 443 nM | IC50 [2]: 228 nM

COc1cc2nc(C)nc(NC(C)c3cccc4sc(C)cc34)c2cc1OC (centres unmarked) [Example 330, 6,7-dimethoxy-2-methyl-N-[1-(2-methyl-1-benzothiophen-4-yl)ethyl]quinazolin-4-amine]
IC50 [1]: 365 nM | IC50 [2]: 227 nM

COc1cc2nc(C)nc(NC(C)c3ccnc4sccc34)c2cc1OC (centres unmarked) [Example 331, 6,7-dimethoxy-2-methyl-N-[1-(thieno[2,3-b]pyridin-4-yl)ethyl]quinazolin-4-amine]
IC50 [1]: 992 nM | IC50 [2]: 919 nM

COc1cc2nc(C)nc(NC(C)c3cncc4sccc34)c2cc1OC (centres unmarked) [Example 332, 6,7-dimethoxy-2-methyl-N-[1-(thieno[2,3-c]pyridin-4-yl)ethyl]quinazolin-4-amine]
IC50 [1]: 2620 nM | IC50 [2]: 2250 nM

COc1cc2nc(C)nc(NC(C)c3nccc4sccc34)c2cc1OC (centres unmarked) [Example 333, 6,7-dimethoxy-2-methyl-N-[1-(thieno[3,2-c]pyridin-4-yl)ethyl]quinazolin-4-amine]
IC50 [1]: 6200 nM | IC50 [2]: 13000 nM

COc1cc2nc(C)nc(N[C@H](C)c3cccc(-c4c(C)n[nH]c4C)c3)c2cc1OC [Example 334, N-{(1R)-1-[3-(3,5-dimethyl-1H-pyrazol-4-yl)phenyl]ethyl}-6,7-dimethoxy-2-methylquinazolin-4-amine]
IC50 [1]: 773 nM | IC50 [2]: 362 nM

COc1cc2nc(C)nc(N[C@H](C)c3cccc(-c4cn[nH]c4C)c3)c2cc1OC [Example 335, 6,7-dimethoxy-2-methyl-N-{(1R)-1-[3-(5-methyl-1H-pyrazol-4-yl)phenyl]ethyl}quinazolin-4-amine]
IC50 [1]: 371 nM | IC50 [2]: 145 nM

COc1cc2nc(C)nc(N[C@H](C)c3cccc(-c4c(C)noc4C)c3)c2cc1OC [Example 336, N-{(1R)-1-[3-(3,5-dimethyl-1,2-oxazol-4-yl)phenyl]ethyl}-6,7-dimethoxy-2-methyl-quinazolin-4-amine]
IC50 [1]: 1260 nM | IC50 [2]: 687 nM
